Measured values: ChEMBL document CHEMBL2390824, “Carbonic anhydrase inhibitors. Benzenesulfonamides incorporating cyanoacrylamide moieties strongly inhibit Saccharomyces cerevisiae β-carbonic anhydrase” (Bioorg Med Chem Lett, 2013)

Key:
[1] = Inhibition of Sachcharomyces cerevisiae beta carbonic anhydrase after 15 mins by stopped-flow CO2 hydrase assay; design: species or system Saccharomyces cerevisiae
[2] = Selectivity ratio of Ki for Sachcharomyces cerevisiae beta carbonic anhydrase to Ki for human carbonic anhydrase-1
[3] = Selectivity ratio of Ki for Sachcharomyces cerevisiae beta carbonic anhydrase to Ki for human carbonic anhydrase-2
Saccharomyces cerevisiae = assay: Antifungal activity against wild type Saccharomyces cerevisiae BY4742 assessed as growth inhibition after 48 hrs by microplate spectrophotometric analysis; assay type: functional; conditions: BY4742, 48 h, read-out: CC50

Structure (SMILES) | Ki [1] | Ratio Ki [2] | Ratio Ki [3] | Growth inhibition IC50 (Saccharomyces cerevisiae)
CC(=O)C1=NN(c2ccccc2)/C(=C(\C#N)C(=O)Nc2ccc(S(N)(=O)=O)cc2)S1 | 57.3 nM | 2.02 | 0.13 | –
N#C/C(=N\Nc1ccccc1)C(=O)Nc1ccc(S(N)(=O)=O)cc1 | 6.5 nM | 5.23 | 1.3 | –
N#C/C(=C\c1ccc(O)cc1)C(=O)Nc1ccc(S(N)(=O)=O)cc1 | 2.5 nM | 23.6 | 13.5 | 6540 nM
COc1ccc(/C=C(\C#N)C(=O)Nc2ccc(S(N)(=O)=O)cc2)cc1 | 0.92 nM | 43 | 9.78 | 1140 nM
N#C/C(=C\C=C\c1ccccc1)C(=O)Nc1ccc(S(N)(=O)=O)cc1 | 5.9 nM | 3.16 | 5.3 | –
COc1ccc(/C=C(\C#N)C(=O)Nc2ccc(S(N)(=O)=O)cc2)cc1OC | 7.2 nM | 4.34 | 2.58 | –
CC(=O)Nc1nnc(S(N)(=O)=O)s1 [ACETAZOLAMIDE] | 82.6 nM | 3.02 | 0.14 | –
N#C/C(=C\c1ccc(Cl)cc1Cl)C(=O)Nc1ccc(S(N)(=O)=O)cc1 | 9.1 nM | 5.17 | 3.61 | –
N=c1oc2ccccc2cc1C(=O)Nc1ccc(S(N)(=O)=O)cc1 | 5.8 nM | 5.67 | 1.88 | –
N#C/C(=C\c1ccc([N+](=O)[O-])cc1)C(=O)Nc1ccc(S(N)(=O)=O)cc1 | 18.6 nM | 2.15 | 0.29 | –
N#C/C(=C\c1ccco1)C(=O)Nc1ccc(S(N)(=O)=O)cc1 | 7.6 nM | 0.8 | 0.72 | –
COc1cc(OC)c(/C=C(\C#N)C(=O)Nc2ccc(S(N)(=O)=O)cc2)c(OC)c1 | 0.68 nM | 37.6 | 9.85 | 730 nM
N#C/C(=C\c1ccc2c(c1)OCO2)C(=O)Nc1ccc(S(N)(=O)=O)cc1 | 7.5 nM | 3.29 | 1.9 | –
CN(C)c1ccc(/C=C(\C#N)C(=O)Nc2ccc(S(N)(=O)=O)cc2)cc1 | 3 nM | 15.8 | 6.46 | 6220 nM
N#CCC(=O)Nc1ccc(S(N)(=O)=O)cc1 | 8.7 nM | 6.25 | 0.7 | –
COc1ccccc1/C=C(\C#N)C(=O)Nc1ccc(S(N)(=O)=O)cc1 | 69.5 nM | 1.02 | 0.1 | –
N#C/C(=C\c1cccs1)C(=O)Nc1ccc(S(N)(=O)=O)cc1 | 3.3 nM | 1.6 | 0.81 | –
COc1cc(/C=C(\C#N)C(=O)Nc2ccc(S(N)(=O)=O)cc2)ccc1O | 5.6 nM | 5.87 | 1.07 | –
COc1cc(OC)c(OC)cc1/C=C(\C#N)C(=O)Nc1ccc(S(N)(=O)=O)cc1 | 8.6 nM | 4.93 | 4.44 | –
N#C/C(=C\c1ccccc1Cl)C(=O)Nc1ccc(S(N)(=O)=O)cc1 | 8.4 nM | 4.91 | 7.26 | –
COc1cc(/C=C(\C#N)C(=O)Nc2ccc(S(N)(=O)=O)cc2)cc(OC)c1OC | 7.1 nM | 5.17 | 1.05 | –
N#C/C(C(=O)Nc1ccc(S(N)(=O)=O)cc1)=C(\S)Nc1ccccc1 | 45.8 nM | 1.47 | 0.14 | –
N#C/C(=C\c1ccc(O)c(O)c1)C(=O)Nc1ccc(S(N)(=O)=O)cc1 | 0.75 nM | 69.9 | 5.6 | 890 nM
